This experiment concerns male Wistar rats. The experiment can be described thus: Sperm motility in hypogonadotropic hypogonadism simulated with Synestrol. The note with it: Synestrol 50 U/kg/day, Treamid 0.5 mg/kg or Tribestan 70 mg/kg intraperitoneally Day 31-45. It is filed as in vivo, rat. The protocol: Hypogonadotropic hypogonadism was simulated by the administration of Synestrol. Estrogens are able to inhibit the secretion of LH (Luteinizing hormone) and FSH (follicle stimulating hormone). An increase in the concentration of estrogens in a male body is accompanied by an increase in the content of sex-steroid-binding globulins, which leads to a decrease in the concentration of free testosterone and to the appearance of asthenospermia.
Experiments were performed on 36 male Wistar rats (3 months of age). For 30 days after the beginning of the experiment, all male rats (except for the background group) were intramuscularly injected with Synestrol at a dose of 50 U/kg/day. Further, from Day 31 to Day 45 of the experiment, the animals of the experimental group, in addition to Synestrol, were intraperitoneally administered Treamid at dose of 0.5 mg/kg or reference drug Tribestan at a dose of 70 mg/kg. The effectiveness of Treamid was estimated by the number of motile sperm forms (percentage of motile sperm forms) isolated from the epididymis. The results of the studies were compared with those for the administration of Synestrol (control) and reference drug Tribestan.

Several values for one entry are separate records, joined by “and”; a condition that tells them apart may be missing. Equal entries are not always repeated.

Turning to `O=C(CCCC(=O)NCCc1ncc[nH]1)NCCc1ncc[nH]1` [Treamid], the “The number of motile sperm cells (%)” value was 69.06 ± 2.98#*⋄ % (group X ± m); 67.04% and 56.84% and 78.65% and 59.09% and 72.63% and 66.67% and 66.99% and 85.55% and 68.08% (individual animals).
